Data: paper PMC8226474, “Design, Syntheses, and Bioevaluations of Some Novel N^2-Acryloylbenzohydrazides as Chemostimulants and Cytotoxic Agents” (Medicines, 2021)
Values joined by “and” are separate entries in the source; they are usually repeats but may differ in a detail not shown here. Equal entries are not always repeated. Where two headings read alike, the source gives them in different places.

Assays:
HCT 116 cells [1] = experiment: Cytotoxicity assay, HCT 116 colon cancer cells; assay type: cell-based, human; conditions: for IC50 / inhibition at 10 µM / inhibition at 100 µM: Homo sapiens, HCT-116, 48 h; for SI (selectivity index): IC50 CRL 1790 / IC50 HCT 116; for inhibition at 10 µM / inhibition at 100 µM: read-out: percentage inhibition of HCT 116 cells
Description: (§1) Evaluation of the cytotoxic properties of the compounds presented in Table 1, Table 2, Table 3 and Table 4 was undertaken using the procedure outlined in [7]. In brief, the HCT 116 cells were obtained from the ATCC and cultured in McCoy’s 5A medium. The CRL 1790 cells were obtained from the ATCC and cultured in Minimum Essential Medium. The MCF-7 and MDA-MBA-231 cells were obtained from the Saskatchewan Cancer Agency and cultured in DMEM. In each assay the culture medium was supplemented with 10% fetal bovine serum and 1% penicillin–streptomycin antibiotics. The time of the bioassays was 48 h, unless indicated otherwise. All determinations were carried out in triplicate on three different occasions.

CRL 1790 cells = experiment: Cytotoxicity assay, non-malignant CRL 1790 colon cells; assay type: cell-based
Description: as §1

HCT 116 cells [2] = experiment: Chemosensitization of HCT 116 cells: 1m for 24 h, then 2a or 5-FU for a further 24 h; assay type: cell-based, human; conditions: for Reduction in Live Cells % 2a (24 h): DMSO figure minus compound figure
Description: as §1
The next phase of the investigation was to determine whether a representative compound in series 1 chemosensitizes HCT 116 cells to a 3,5-bis(benzylidene)-4-piperidone 2a. […] The colon cancer cells were incubated for 24 h with 1m, and then 2a was added and the incubation was continued for a further 24 h. Different concentrations of both 1m and 2a were employed, and the results are presented as entries 1–12 in Table 3. In addition, the effects of each of 1m, 2a, and 5-FU on HCT 116 cells (which are necessary for the evaluation of whether chemosensitivity occurs) were recorded, and are presented as entries 13–20 in Table 3.
The concentration of 1m in combination 4 is 5 µM, which after 48 h causes a percentage reduction of live cells to 86% (DMSO figure after 48 h, line 20) minus 75% (48 h, line 13), or 11%.
The concentration of 2a in combination 4 is 0.2 µM. This combination leads to a reduction of the percentage of live cells to 91% (DMSO figure after 24 h, line 20) minus 69%, or 22%.
The percentage reduction in live cells caused by a combination of 1m (5 µM) and 2a (0.2 µM), in the absence of chemosensitization, is 11% plus 22%, or 33%.
However, the percentage reduction in cells as indicated on line 4 is 86% (DMSO figure after 48 h) minus 12% (line 4, 48 h figure), or 74%.

MCF-7 cells = experiment: Cytotoxicity assay, MCF-7 breast cancer cells; assay type: cell-based, human; conditions: for inhibition at 10 µM / inhibition at 100 µM / IC50: Homo sapiens, MCF7, 48 h; for inhibition at 10 µM / inhibition at 100 µM: read-out: percentage inhibition of MCF-7 cells; for IC50 / SI (selectivity index): Table 2; for IC50: read-out: Neoplastic Cells IC50, MCF-7; for SI (selectivity index): IC50 CRL 1790 / IC50 MCF-7
Description: as §1

MDA-MB-231 cells = experiment: Cytotoxicity assay, MDA-MB-231 breast cancer cells; assay type: cell-based, human; conditions: for inhibition at 10 µM / inhibition at 100 µM / IC50: Homo sapiens, MDA-MB-231, 48 h; for inhibition at 10 µM / inhibition at 100 µM: read-out: percentage inhibition of MDA-MB-231 cells; for IC50 / SI (selectivity index): Table 2; for IC50: read-out: Neoplastic Cells IC50, MDA-MB-231; for SI (selectivity index): IC50 CRL 1790 / IC50 MDA-MB-231
Description: as §1

[3] = Table 4, read-out: IC50 HCT 116
[4] = Homo sapiens, 48 h, Table 4, read-out: IC50 CRL 1790
[5] = Table 2, read-out: Neoplastic Cells IC50, HCT 116

Compound | IC50 (HCT 116 cells [1]; [3]) | SI (selectivity index) (HCT 116 cells [1]; Table 4) | IC50 (CRL 1790 cells; [4]) | inhibition at 10 µM (HCT 116 cells [1]) | inhibition at 100 µM (HCT 116 cells [1]) | inhibition at 10 µM (MCF-7 cells) | inhibition at 100 µM (MCF-7 cells) | inhibition at 10 µM (MDA-MB-231 cells) | inhibition at 100 µM (MDA-MB-231 cells) | melting point | also measured
O=C1C(=Cc2ccccc2)CNCC1=Cc1ccccc1 [2a, 3,5-bis(benzylidene)-4-piperidone] | 0.37 ± 0.06 µM | 36.4 | 13.5 ± 1.99 µM |  |  |  |  |  |  |  | Reduction in Live Cells % 2a (24 h) (HCT 116 cells [2]; 2a 0.1 µM alone, 24 h): 8%; Reduction in Live Cells % 2a (24 h) (HCT 116 cells [2]; 2a 0.2 µM alone, 24 h): 22%; Reduction in Live Cells % 2a (24 h) (HCT 116 cells [2]; 2a 0.4 µM alone, 24 h): 43%; Live Cells % (HCT 116 cells [2]; entry 16: 2a 0.1 µM alone, 24 h): 83 ± 2.28%; Live Cells % (HCT 116 cells [2]; entry 16: 2a 0.1 µM alone, 48 h): 78 ± 2.12%; Live Cells % (HCT 116 cells [2]; entry 17: 2a 0.2 µM alone, 24 h): 69% and 69 ± 1.38%; Live Cells % (HCT 116 cells [2]; entry 17: 2a 0.2 µM alone, 48 h): 52 ± 1.15%; Live Cells % (HCT 116 cells [2]; entry 18: 2a 0.4 µM alone, 24 h): 48 ± 1.20%; Live Cells % (HCT 116 cells [2]; entry 18: 2a 0.4 µM alone, 48 h): 32 ± 1.50%
O=c1[nH]cc(F)c(=O)[nH]1 [5-FU, 5-fluorouracil, reference compound] | 4.11 ± 0.22 µM | 2.64 | 10.8 ± 1.64 µM | 84.7 ± 2.53% | 94.1 ± 0.96% | 91.2 ± 3.03% | 99.3 ± 2.87% | 17.4 ± 2.97% | > 100% |  | IC50 (HCT 116 cells [1]; [5]): 3.77 ± 0.48 µM; SI (selectivity index) (HCT 116 cells [1]; Table 2): 2.92; IC50 (MCF-7 cells): 2 ± 0.25 µM; SI (selectivity index) (MCF-7 cells): 5.42; IC50 (MDA-MB-231 cells): 15.9 ± 1.65 µM; SI (selectivity index) (MDA-MB-231 cells): 0.68; IC50 (CRL 1790 cells; Homo sapiens, 48 h, Table 2, read-out: Non-Malignant CRL 1790 Cells IC50): 10.8 ± 1.64 µM; Reduction in Live Cells % 2a (24 h) (HCT 116 cells [2]; 5-FU 3 µM alone, 24 h): 13%; Live Cells % (HCT 116 cells [2]; entry 19: 5-FU 3 µM alone, 24 h): 78 ± 2.44%; Live Cells % (HCT 116 cells [2]; entry 19: 5-FU 3 µM alone, 48 h): 55 ± 1.37%
CC(=O)NNC(=O)c1ccccc1 [6b, N^2-Acetylbenzohydrazide] |  |  |  | -4.89 ± 2.52% | 13.6 ± 3.03% | -93.8 ± 4.15% | -58.7 ± 3.24% | -22.6 ± 2.65% | -15.3 ± 3.46% | 171 to 172 °C | 
O=C(CCNNC(=O)c1ccccc1)NNC(=O)c1ccccc1 [6c, N^2-[3-(Benzoylaminoamino)-1-oxopropyl]-N^1-benzoylhydrazine] |  |  |  | 18.6 ± 3.98% | 96.9 ± 1.86% | 16.1 ± 3.55% | 97.9 ± 2.68% | -16 ± 2.91% | 95.6 ± 4.22% | 193 to 195 °C | 
COc1ccc(C(=O)NNC(=O)CCN2CC(=Cc3ccccc3)C(=O)C(=Cc3ccccc3)C2)cc1OC [7b, 3,5-Bis(benzylidene)-1-[3-(3,4-dimethoxylphenylcarbonylaminoamino)-3-oxo-1-propyl]-4-piperidone] | 3.15 ± 0.33 µM | 3.06 | 9.63 ± 1.62 µM |  |  |  |  |  |  | 151 to 154 °C | times more potent than 1m (HCT 116 cells [1]; ratio of IC50 values towards HCT 116 cells): 4.86 times
COc1ccc(C(=O)NNC(=O)CCN2CC(=Cc3ccc(Cl)cc3)C(=O)C(=Cc3ccc(Cl)cc3)C2)cc1OC [7c, 3,5-Bis(4-chlorobenzylidene)-1-[3-(3,4-dimethoxyphenylcarbonylaminoamino)-3-oxo-1-propyl]-4-piperidone] | 3.4 ± 0.01 µM | 3.60 | 12.2 ± 1.22 µM |  |  |  |  |  |  | 200 to 202 °C | 
COc1ccc(C(=O)NNC(=O)CCN2CC(=Cc3ccc(F)cc3)C(=O)C(=Cc3ccc(F)cc3)C2)cc1OC [7d, 3,5-Bis(4-fluorobenzylidene)-1-[3-(3,4-dimethoxyphenylcarbonylaminoamino)-3-oxo-1-propyl]-4-piperidone] | 3.82 ± 0.11 µM | 2.99 | 11.4 ± 2.22 µM |  |  |  |  |  |  | 198 to 200 °C | 
COc1ccc(C=C2CN(CCC(=O)NNC(=O)c3ccc(OC)c(OC)c3)CC(=Cc3ccc(OC)cc3)C2=O)cc1 [7f, 3,5-Bis(4-methoxybenzylidene)-1-[3-(3,4-dimethoxyphenylcarbonylaminoamino)-3-oxo-1-propyl]-4-piperidone] | 2.87 ± 0.23 µM | 3.86 | 11.1 ± 0.52 µM |  |  |  |  |  |  | 175 to 178 °C | 
N[C@@H](Cc1ccc(N(CCCl)CCCl)cc1)C(=O)O [Melphalan, reference compound] | 33.2 ± 1.7 µM | >3.02 |  | 33.9 ± 1.81% | 98.7 ± 1.12% | > 100% | > 100% | 28.6 ± 2.48% | > 100% |  | IC50 (HCT 116 cells [1]; [5]): 30.7 ± 2.73 µM; SI (selectivity index) (HCT 116 cells [1]; Table 2): >3.25; IC50 (MCF-7 cells): 12 ± 1.43 µM; SI (selectivity index) (MCF-7 cells): >8.32; IC50 (MDA-MB-231 cells): 52.9 ± 2.32 µM; SI (selectivity index) (MDA-MB-231 cells): >1.90; IC50 (CRL 1790 cells; Homo sapiens; Table 2; 48 h; read-out: Non-Malignant CRL 1790 Cells IC50): > 100 µM; IC50 (CRL 1790 cells; Homo sapiens; Table 4; 48 h; read-out: IC50 CRL 1790): > 100 µM
